Oligonucleotides are written 5' to 3', each unit as a sugar letter and its base; * is a phosphorothioate linkage, no mark a phosphodiester; rarer units and linkages stand in square brackets, end groups in braces. Plain capitals give the bases only. e = 2'-O-(2-methoxyethyl) (MOE); [5mC] = 5-methylcytosine; d = 2'-deoxy (DNA)
Test system: mouse glucose-6-phosphatase translocase mRNA
Assay: Antisense inhibition of mouse glucose-6-phosphatase translocase mRNA in primary mouse hepatocytes, 150 nM, LIPOFECTIN (Table 22)
Assay type: cell-based
Conditions: real-time PCR
Experimental: Primary mouse hepatocytes were prepared from CD-1 mice purchased from Charles River Labs. Primary mouse hepatocytes were routinely cultured in Hepatocyte Attachment Media supplemented with 10% fetal bovine serum (Invitrogen Life Technologies, Carlsbad, Calif.), 250 nM dexamethasone, and 10 nM bovine insulin (Sigma-Aldrich, St. Louis, Mo.). Cells were seeded into 96-well plates (Falcon-Primaria #353872, BD Biosciences, Bedford, Mass.) at a density of approximately 4,000-6,000 cells/well for use in oligomeric compound transfection experiments.
When cells reached 65-75% confluency, they were treated with oligonucleotide. Oligonucleotide was mixed with LIPOFECTIN™ Invitrogen Life Technologies, Carlsbad, Calif.) in Opti-MEM™-1 reduced serum medium (Invitrogen Life Technologies, Carlsbad, Calif.) to achieve the desired concentration of oligonucleotide and a LIPOFECTIN™ concentration of 2.5 or 3 μg/mL per 100 nM oligonucleotide. This transfection mixture was incubated at room temperature for approximately 0.5 hours. For cells grown in 96-well plates, wells were washed once with 100 μL OPTI-MEM™-1 and then treated with 130 μL of the transfection mixture. Cells grown in 24-well plates or other standard tissue culture plates are treated similarly, using appropriate volumes of medium and oligonucleotide. Cells are treated and data are obtained in duplicate or triplicate. After approximately 4-7 hours of treatment at 37° C., the medium containing the transfection mixture was replaced with fresh culture medium. Cells were harvested 16-24 hours after oligonucleotide treatment.
Quantitation of glucose 6-phosphatase translocase mRNA levels was accomplished by real-time quantitative PCR using the ABI PRISM™ 7600, 7700, or 7900 Sequence Detection System (PE-Applied Biosystems, Foster City, Calif.) according to manufacturer's instructions.
Prior to quantitative PCR analysis, primer-probe sets specific to the target gene being measured were evaluated for their ability to be “multiplexed” with a GAPDH amplification reaction. After isolation the RNA is subjected to sequential reverse transcriptase (RT) reaction and real-time PCR, both of which are performed in the same well. RT and PCR reagents were obtained from Invitrogen Life Technologies (Carlsbad, Calif.). […] The RT reaction was carried out by incubation for 30 minutes at 48° C. Following a 10 minute incubation at 95° C. to activate the PLATINUM® Taq, 40 cycles of a two-step PCR protocol were carried out: 95° C. for 15 seconds (denaturation) followed by 60° C. for 1.5 minutes (annealing/extension).
Gene target quantities obtained by RT, real-time PCR were normalized using either the expression level of GAPDH, a gene whose expression is constant, or by quantifying total RNA using RiboGreen™ (Molecular Probes, Inc. Eugene, Oreg.). GAPDH expression was quantified by RT, real-time PCR, by being run simultaneously with the target, multiplexing, or separately. Total RNA was quantified using RiboGreen™ RNA quantification reagent (Molecular Probes, Inc. Eugene, Oreg.).
A series of oligomeric compounds was designed to target different regions of mouse glucose-6-phosphatase translocase, using published sequences cited in Table 1. All compounds in Table 22 are chimeric oligonucleotides (“gapmers”) 20 nucleotides in length, composed of a central “gap” region consisting of 10 2′-deoxynucleotides, which is flanked on both sides (5′ and 3′) by five-nucleotide “wings”. The wings are composed of 2′-O-(2-methoxyethyl) nucleotides, also known as 2′-MOE nucleotides. The internucleoside (backbone) linkages are phosphorothioate throughout the oligonucleotide. All cytidine residues are 5-methylcytidines. The compounds were analyzed for their effect on gene target mRNA levels by quantitative real-time PCR as described in other examples herein, using the following primer-probe set designed to hybridize to mouse glucose-6-phosphatase translocase: • forward primer: […]

| Substance | % Inhib of mouse glucose-6-phosphatase translocase mRNA levels [%] |
| --- | --- |
| 145691 (antisense eT*eG*eT*e[5mC]*eT*dG*dA*d[5mC]*dA*dG*dG*dT*dA*dA*d[5mC]*e[5mC]*eA*eG*e[5mC]*eT) [compound 145691] | 30 |
| 145692 (antisense eG*e[5mC]*eT*eG*e[5mC]*d[5mC]*dA*dT*d[5mC]*d[5mC]*d[5mC]*dA*dG*d[5mC]*d[5mC]*eA*eT*e[5mC]*eA*eT) [compound 145692] | 65 |
| 145693 (eG*eG*eA*eA*eG*dA*dG*dA*dT*dA*d[5mC]*dG*dT*dG*dG*eA*eT*eG*e[5mC]*eT; antisense) [compound 145693] | 0 |
| 145694 (eA*eG*eT*e[5mC]*eA*d[5mC]*dT*dG*dG*dT*d[5mC]*dA*d[5mC]*d[5mC]*dG*eT*eT*eA*e[5mC]*eT; antisense) [compound 145694] | 23 |
| 145695 (e[5mC]*eA*eA*eT*eG*dG*dG*dA*d[5mC]*d[5mC]*dA*dT*dA*dA*dG*eA*eA*eG*eA*eG; antisense) [compound 145695] | 24 |
| 145696 (e[5mC]*eT*e[5mC]*e[5mC]*eA*dA*dA*d[5mC]*dA*dA*dG*dG*d[5mC]*dA*dA*eT*eG*eG*eG*eA; antisense) [compound 145696] | 37 |
| 145697 (eT*eG*eG*e[5mC]*eT*dA*dT*dG*dA*d[5mC]*dT*d[5mC]*d[5mC]*dA*dA*eA*e[5mC]*eA*eA*eG; antisense) [compound 145697] | 45 |
| 145698 (e[5mC]*e[5mC]*eA*e[5mC]*eA*dA*dT*dA*dG*d[5mC]*dA*dT*dG*dA*dG*eA*eG*eG*eT*eT; antisense) [compound 145698] | 33 |
| 145699 (eT*e[5mC]*e[5mC]*eA*e[5mC]*d[5mC]*d[5mC]*dA*d[5mC]*dA*dT*dT*dG*dG*d[5mC]*e[5mC]*eA*eT*eA*eA; antisense) [compound 145699] | 41 |
| 145701 (eA*eG*eT*eG*e[5mC]*dT*dT*dG*dG*d[5mC]*dA*dA*dT*dG*dG*eT*eG*e[5mC]*eT*eG; antisense) [compound 145701] | 54 |
| 145703 (eA*e[5mC]*e[5mC]*eA*e[5mC]*dT*dT*d[5mC]*dT*dG*d[5mC]*d[5mC]*dA*d[5mC]*d[5mC]*e[5mC]*eA*eG*eA*eA; antisense) [compound 145703] | 42 |
| 145704 (eG*e[5mC]*eT*eG*eG*d[5mC]*dT*d[5mC]*d[5mC]*dA*d[5mC]*dA*dA*dA*d[5mC]*e[5mC]*eA*e[5mC]*eT*eT; antisense) [compound 145704] | 54 |
| 145705 (e[5mC]*eT*eT*eG*eG*dT*dG*d[5mC]*dG*dG*dA*dT*dA*dT*dT*eT*e[5mC]*eG*eA*eA; antisense) [compound 145705] | 49 |
| 145707 (eT*eG*eG*eA*eT*dA*d[5mC]*dT*d[5mC]*dG*dG*d[5mC]*d[5mC]*d[5mC]*dA*eT*e[5mC]*eT*eT*eG; antisense) [compound 145707] | 56 |
| 145708 (eG*eG*eA*e[5mC]*eT*d[5mC]*dG*dA*dT*dT*d[5mC]*dA*d[5mC]*dT*d[5mC]*eT*e[5mC]*e[5mC]*e[5mC]*eT; antisense) [compound 145708] | 48 |
| 145709 (eG*eG*eG*eA*eT*dG*d[5mC]*dT*d[5mC]*d[5mC]*dA*dT*dA*dG*d[5mC]*eG*eA*eG*eG*eA; antisense) [compound 145709] | 14 |

| Substance | % Inhib of mouse glucose-6-phosphatase translocase mRNA levels [%] |
| --- | --- |
| 145710 (e[5mC]*e[5mC]*eT*eG*e[5mC]*d[5mC]*dA*dG*dT*dA*dA*dG*dG*d[5mC]*dT*eG*e[5mC]*eA*eG*eT; antisense) [compound 145710] | 13 |
| 145711 (eG*eA*eG*eA*eG*dA*d[5mC]*dA*dG*dT*dG*dG*dA*dG*dA*e[5mC]*eA*e[5mC]*eA*eG; antisense) [compound 145711] | 33 |
| 145712 (eT*eG*eG*eA*eG*dG*dT*dT*d[5mC]*dA*dG*dA*dG*dA*dG*eA*e[5mC]*eA*eG*eT; antisense) [compound 145712] | 42 |
| 145713 (eG*eT*eA*eA*e[5mC]*dT*dT*dG*d[5mC]*dA*dG*d[5mC]*dA*d[5mC]*d[5mC]*eA*eT*eG*eG*eA; antisense) [compound 145713] | 63 |
| 145714 (eG*e[5mC]*e[5mC]*eA*e[5mC]*dT*dG*dG*dT*dA*dA*d[5mC]*dT*dT*dG*e[5mC]*eA*eG*e[5mC]*eA; antisense) [compound 145714] | 66 |
| 145715 (eA*eG*eG*eA*eG*dT*dT*dG*d[5mC]*d[5mC]*dT*dG*dT*d[5mC]*dT*eG*e[5mC]*e[5mC]*eA*eG; antisense) [compound 145715] | 50 |
| 145716 (e[5mC]*e[5mC]*e[5mC]*eT*eG*dA*dA*dT*dT*d[5mC]*dA*dG*dG*dA*dG*eT*eT*eG*e[5mC]*e[5mC]; antisense) [compound 145716] | 52 |
| 145717 (eT*eA*e[5mC]*eT*e[5mC]*dA*d[5mC]*dT*dA*dG*dG*dA*dG*dA*dT*e[5mC]*eA*eG*eG*eA; antisense) [compound 145717] | 52 |
| 145718 (e[5mC]*eA*eA*eT*eT*dT*dT*dG*d[5mC]*d[5mC]*d[5mC]*d[5mC]*d[5mC]*dT*dG*e[5mC]*e[5mC]*eA*eA*eG; antisense) [compound 145718] | 26 |
| 145719 (eG*eA*eG*eT*eG*dG*dT*dG*dG*dA*d[5mC]*dT*d[5mC]*d[5mC]*dT*e[5mC]*eT*e[5mC]*e[5mC]*eT; antisense) [compound 145719] | 47 |
| 145720 (TCAAATCTAGCTTTATTCGA; 2'-MOE wings and deoxy gap, wing lengths and linkages not given here) [compound 145720] | 11 |
| 145721 (eG*eG*e[5mC]*eT*eG*dT*dG*dG*dG*dT*d[5mC]*d[5mC]*d[5mC]*d[5mC]*dG*eA*eA*e[5mC]*eG*eA; antisense) [compound 145721] | 0 |
| 145722 (e[5mC]*eA*eG*eT*eG*dT*d[5mC]*d[5mC]*d[5mC]*dT*dG*d[5mC]*dG*dA*d[5mC]*eA*eT*e[5mC]*eA*eG; antisense) [compound 145722] | 8 |
| 145723 (eG*e[5mC]*e[5mC]*eG*e[5mC]*d[5mC]*dT*dT*d[5mC]*dT*dG*dG*dA*d[5mC]*dA*eA*eT*e[5mC]*eA*eT; antisense) [compound 145723] | 0 |
| 145724 (eG*eG*e[5mC]*eT*e[5mC]*dT*dT*dT*dA*dT*dA*dG*d[5mC]*d[5mC]*dG*e[5mC]*e[5mC]*eT*eT*e[5mC]; antisense) [compound 145724] | 0 |

Source: patent publication US8258114B2, “Modulation of glucose-6-phosphatase translocase expression” (Isis Pharmaceuticals, Inc., priority 2004, dated 2012)
